Data reported in patent US20260042755A1, “GPR6 INVERSE AGONISTS” (MapLight Therapeutics, Inc., priority 2022, published 2026).
pIC50: −log10 of the molar value.

Assays:
GPR6 = molecular target: T1, GPR6 (Homo sapiens, UniProt P46095); experiment: GPR6 antagonist functional cAMP assay (LANCE Ultra cAMP TR-FRET, CHO cells stably expressing GPR6); format: cell-based
T1 construct: expressed in transfected cells; host or cells: CHO cells
Summary of the method: (§1)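 Read-out was TR-FRET cAMP signal at 665 nm after 1 h at room temperature, following 45 min compound exposure at 37 °C. Assay buffer contained 0.1% BSA and 150 μM Ro 20-1724. Antagonist IC50s were fitted with a 4-parameter logistic against DMSO and reference controls.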

GPR3 = molecular target: T2, GPR3 (Homo sapiens, UniProt P46089); experiment: GPR3 antagonist functional cAMP assay (LANCE Ultra cAMP TR-FRET, CHO cells stably expressing GPR3); format: cell-based
T2 construct: expressed in transfected cells; host or cells: CHO cells
Summary of the method: as §1

[1] = CHO cells stably expressing GPR6, cAMP assay (Example 24)
[2] = CHO cells stably expressing GPR3, cAMP assay (Example 24)
[3] = procedure as described in Example 24

T1 sequence (P46095 whole entry): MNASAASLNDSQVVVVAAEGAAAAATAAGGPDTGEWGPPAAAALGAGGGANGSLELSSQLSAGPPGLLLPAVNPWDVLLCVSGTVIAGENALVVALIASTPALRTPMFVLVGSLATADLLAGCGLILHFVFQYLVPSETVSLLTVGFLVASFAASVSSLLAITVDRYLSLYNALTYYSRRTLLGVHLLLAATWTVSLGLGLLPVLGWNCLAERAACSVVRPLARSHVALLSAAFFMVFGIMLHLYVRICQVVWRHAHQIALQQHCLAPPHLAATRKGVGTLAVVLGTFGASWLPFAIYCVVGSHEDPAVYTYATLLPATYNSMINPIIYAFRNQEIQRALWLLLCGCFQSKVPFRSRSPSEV
T2 sequence (P46089 whole entry, species assumed): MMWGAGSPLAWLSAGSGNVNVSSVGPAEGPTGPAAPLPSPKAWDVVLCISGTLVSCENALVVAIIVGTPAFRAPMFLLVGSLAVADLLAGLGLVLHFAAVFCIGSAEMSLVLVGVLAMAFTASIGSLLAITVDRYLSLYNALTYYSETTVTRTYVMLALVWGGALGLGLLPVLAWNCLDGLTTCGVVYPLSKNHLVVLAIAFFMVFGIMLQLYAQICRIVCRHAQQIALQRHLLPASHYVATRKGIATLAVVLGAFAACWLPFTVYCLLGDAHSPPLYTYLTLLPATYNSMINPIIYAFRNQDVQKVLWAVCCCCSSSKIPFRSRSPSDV

| pIC50 (GPR6; procedure of Example 24) | pIC50 (GPR3; procedure of Example 24) | Structure (SMILES) | further results |
| --- | --- | --- | --- |
| – | – | CC(=O)N1CCc2nc(N3CCC(Oc4ccc(F)cc4F)CC3)c(C3CCNCC3)nc2C1 [Compound 265, 1-{2-[4-(2,4-difluorophenoxy)piperidin-1-yl]-3-(piperidin-4-yl)-5H,6H,7H,8H-pyrido[3,4-b]pyrazin-6-yl}ethan-1-one] | pIC50 (GPR6; [1]): 4.52 to 6.00; pIC50 (GPR3; [2]): 4.52 to 6.00 |
| > 7.00 | 4.52 to 6.00 | CC(=O)N1CCc2nc(N3CCC(C(=O)c4ccc(F)cc4F)CC3)c(-c3ccc(F)c(N)n3)nc2C1 [Compound 638, 1-{3-(6-amino-5-fluoro-2-pyridyl)-2-[4-(2,4-difluorobenzoyl)-1-piperidyl]-5,6,7,8-tetrahydro-1,4,6-triaza-6-naphthyl}-1-ethanone] | – |
| – | – | CC(=O)N1CCc2nc(N3CCC(Oc4ccc(F)cc4F)CC3)c(-c3cn[nH]c3C)nc2C1 [Compound 43, 1-{2-[4-(2,4-difluorophenoxy)piperidin-1-yl]-3-(5-methyl-1H-pyrazol-4-yl)-5H,6H,7H,8H-pyrido[3,4-b]pyrazin-6-yl}ethan-1-one] | pIC50 (GPR6; [3]): 6.00 to 7.00; pIC50 (GPR3; [3]): 4.52 to 6.00 |
| – | – | CC(=O)N1CCc2nc(N3CCC(Oc4ccc(F)cc4F)CC3)c(-c3ncccn3)nc2C1 [Compound 37, 1-{2-[4-(2,4-difluorophenoxy)piperidin-1-yl]-3-(pyrimidin-2-yl)-5H,6H,7H,8H-pyrido[3,4-b]pyrazin-6-yl}ethan-1-one] | pIC50 (GPR6; [3]): 4.52 to 6.00; pIC50 (GPR3; [3]): 6.00 to 7.00 |
| 6.00 to 7.00 | 4.52 to 6.00 | COC(=O)[C@H]1C[C@@H]1c1cc2nc(N3CCC(Oc4ccc(F)cc4F)CC3)c(-c3cnn(C)c3)nc2cn1 (single isomer, unassigned) [Compound 733] | – |
| – | – | COC[C@H]1CN(Cc2ccc(F)cc2F)CCN1c1nc2c(nc1-c1cnn(C)c1)CN(C(C)=O)CC2 (single isomer, unassigned) [Compound 249] | pIC50 (GPR6; [1]): 4.52 to 6.00; pIC50 (GPR3; [2]): 4.52 to 6.00 |
| 6.00 to 7.00 | 4.52 to 6.00 | CC(C)(O)[C@@H](O)c1cc2nc(-c3cnn(CF)c3)c(N3CCN(Cc4ccccc4F)CC3)nc2cn1 (single isomer, unassigned) [Compound 713] | – |
| 6.00 to 7.00 | 4.52 to 6.00 | Cn1cc(-c2nc3cnc([C@H](O)C(C)(C)F)cc3nc2N2CCC(Oc3ccc(F)cc3F)CC2)cn1 (single isomer, unassigned) [Compound 743] | – |
| 6.00 to 7.00 | 4.52 to 6.00 | CCn1cc(-c2nc3cnc([C@](C)(O)C(C)(C)O)cc3nc2N2CCC(Oc3ccc(F)cc3F)CC2)cn1 (single isomer, unassigned) [Compound 735] | – |
| – | – | CCn1cc(-c2nc3cnc(N)cc3nc2N2CCC(Oc3cc(Cl)ccc3Cl)CC2)cn1 [Compound 440, 2-[4-(2,5-dichlorophenoxy)piperidin-1-yl]-3-(1-ethyl-1H-pyrazol-4-yl)pyrido[3,4-b]pyrazin-7-amine] | pIC50 (GPR6; [1]): 4.52 to 6.00; pIC50 (GPR3; [2]): 4.52 to 6.00 |
| 6.00 to 7.00 | 4.52 to 6.00 | CC(C)(O)[C@](C)(O)c1cc2nc(-c3cnn(C(F)F)c3)c(N3CCN(Cc4cc(F)ccc4F)CC3)nc2cn1 (single isomer, unassigned) [Compound 795] | – |
| – | – | CC(=O)N1Cc2nc(-c3cnn(C)c3)c(N3CCC(Oc4ccc(F)cc4F)CC3)nc2CC1C (stereo not shown) [Compound 394, 1-{2-[4-(2,4-difluorophenoxy)piperidin-1-yl]-7-methyl-3-(1-methyl-1H-pyrazol-4-yl)-5H,6H,7H,8H-pyrido[3,4-b]pyrazin-6-yl}ethan-1-one] | pIC50 (GPR6; [1]): 6.00 to 7.00; pIC50 (GPR3; [2]): 4.52 to 6.00 |
| 6.00 to 7.00 | 4.52 to 6.00 | CC(C)(O)[C@H](O)c1cc2nc(-c3cnn(C4CC4)c3)c(N3CCN(Cc4ccccc4F)CC3)nc2cn1 (single isomer, unassigned) [Compound 781] | – |
| – | – | CC(=O)N1CCc2nc(N3CCN(Cc4ccnn4C)CC3)c(-c3cnn(C)c3)nc2C1 [Compound 525, 1-[3-(1-methyl-4-pyrazolyl)-2-{4-[(1-methyl-5-pyrazolyl)methyl]-1-piperazinyl}-5,6,7,8-tetrahydro-1,4,6-triaza-6-naphthyl]-1-ethanone] | pIC50 (GPR6; CHO cells stably expressing GPR6, cAMP assay): ≤ 4.52; pIC50 (GPR3; CHO cells stably expressing GPR3, cAMP assay): ≤ 4.52 |
